Laboratory results reported in PMC10135050, “Neutralizing Carbapenem Resistance by Co-Administering Meropenem with Novel β-Lactam-Metallo-β-Lactamase Inhibitors” (Antibiotics, 2023).

Columns and labels:
HepG2 cells = experiment: LDH membrane leakage assay; type: cell-based, human
Method: HepG2 cells were cultured in 25 mL cell culture flasks using Eagle’s minimum essentials medium (EMEM) supplemented with 10% fetal bovine serum, 1% pen-strep-fungizone and 1% L-glutamine, maintained in a humidified incubator (37 °C, 5% CO2) until approximately 80% confluence.
The LDH assay was used to assess membrane damage of HepG2 cells. Supernatant collected from control and BP2 treated cells were centrifuged (400× g, 24 °C, 10 min) and dispensed (100 μL/well) in triplicate into a 96-well microtiter plate. LDH reagent (100 μL, 11644793001, Sigma Aldrich, Schnelldorf, Germany) was added to each well. The plate was incubated for 30 min at room temperature in the dark. Absorbance was read using a spectrophotometer (Bio-Tek μQuant,) at […]. Results are represented as relative fold change compared to untreated control.

VIM-2 = biological target: T1, VIM-2 (Escherichia coli, UniProt Q5U7L7); experiment: Enzyme inhibition kinetics (nitrocefin); type: biochemical
T1 construct: purchased RayBiotech (RayBiotech Life Inc., Peachtree Corners, GA, USA)
Method: (§1) The IC50 was calculated from the generated sigmoidal curves (Figure S1) using GraphPad Prism software version 8.0.2 (GraphPad Inc., San Diego, CA, USA), and the Ki app was calculated using the Cheng–Prusoff equation [43]. […] However, we expect that inhibitors that remove one Zn atom from the enzyme active site will be slow-acting irreversible inhibitors that would require a more detailed kinetic analysis than used here. […] Structurally, BP2 is a thiazole-containing compound, while BP1 lacks this moiety. It is unclear whether the increased inhibition activity is due to the longer distance between the chelator moiety and the lactam moiety, which is less likely to sterically hinder the chelator, or if it is the thiazole itself that boosts the interaction efficacy of the compound.
(§2) A dose-dependent enzyme inhibition assay was performed using a Biotek PowerWave XS2 (Biotek Instruments Inc., Winooski, VT, USA) plate reader. NDM-1 and VIM-2 enzymes were purchased from RayBiotech (RayBiotech Life Inc., Peachtree Corners, GA, USA). Enzymes in the quantity of 1 nM (NDM-1) or 0.5 nM (VIM-2) were used in this study with a fixed nitrocefin concentration of either 120 µM (NDM-1) or 50 µM (VIM-2) and varying BP2 concentrations ranging from 5 to 200 µM (NDM-1) and 2.5 to 300 µM (VIM-2) in 50 mM HEPES buffer supplemented with 100 µg/mL BSA and 10 µM ZnCl2. Inhibition was measured at 482 nm at 25 °C.

NDM-1 = biological target: T2, NDM-1 (Klebsiella pneumoniae, UniProt C7C422); experiment: Enzyme inhibition kinetics (nitrocefin); type: biochemical
T2 construct: purchased RayBiotech (RayBiotech Life Inc., Peachtree Corners, GA, USA)
Method: as §1, §2

[1] = Single-dose pharmacokinetic experiment; type: in vivo; details: for Time of peak concentration (Cmax) after drug administration: single dose, plasma
Method: In order to evaluate BP2’s potential to act synergetically with antibacterial agents such as meropenem in vivo, we next performed a single-dose pharmacokinetic experiment to ensure an appropriate dosing schedule for achieving a safe and therapeutic concentration of BP2 in plasma. […] Constant concentrations were then reached after two hours. A plasma concentration of 1.93 µg/L was obtained with a dose of 10 mg/kg.b.w. This was far below the cytotoxicity concentrations seen in the cell viability assays, advocating for the safe increase in the treatment dose to 100 mg/kg.b.w, which allowed us to reach therapeutic concentrations (Figure 6) in plasma without the possibility of toxicity. In vivo efficacy studies were undertaken to assess the potency of BP2 in a murine infection model. This five-day animal trial was initiated by immune-suppressing the mice with cyclophosphamide to allow the progression of infection and allow BP2 + meropenem treatment to be studied over eight hours on day five of the trial. In addition, it excludes the effects of the innate immune response as a potential variable. This is important since many carbapenem-resistant infections are acquired as secondary infections in immune-suppressed hosts. The mice were successfully infected with Klebsiella pneumoniae NDM, evidenced by visible inflammation of the localized area; this correlated with the cfu/thigh data expressed (Tables S1–S3). Three treatment regimens of S (saline only), M (meropenem only), and BP2 combination therapy (BP2 + meropenem) were used to randomly categorize mice.
A Shimadzu Nexera Series (Shimadzu Corporation, Kyoto, Japan) liquid chromatography system was coupled with Shimadzu LCMS-8050 tandem mass spectrometer (Shimadzu, Kyoto, Japan). […] Quantitative and qualitative studies were conducted using MRM mode via an ESI interface, with the following source parameters: nitrogen nebulizer gas flow 3 L/min; heat gas 10 L/min and interface temperature of 300 °C. […] Results were analyzed using LabSolutions Insight LCMS. All data are expressed as a mean ± SD.

T2 sequence (C7C422 29-270, looked up, species assumed): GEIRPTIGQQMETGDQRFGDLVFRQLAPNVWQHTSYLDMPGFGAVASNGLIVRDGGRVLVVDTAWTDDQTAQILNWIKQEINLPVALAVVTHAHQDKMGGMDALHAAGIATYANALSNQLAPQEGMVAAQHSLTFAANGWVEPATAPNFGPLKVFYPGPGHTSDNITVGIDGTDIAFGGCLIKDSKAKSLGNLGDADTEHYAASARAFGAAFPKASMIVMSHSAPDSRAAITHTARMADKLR

Row | Compound | LDH levels (HepG2 cells; HepG2, 1 µg/mL) | LDH membrane leakage (HepG2 cells; HepG2, 8 µg/mL–200 µg/mL) | Cell membrane integrity (LDH leakage) (HepG2 cells; HepG2, all concentrations tested) | IC50 (VIM-2; VIM-2 0.5 nM, nitrocefin 50 µM, mean ± SD) [µM] | Ki (VIM-2; VIM-2, Cheng–Prusoff equation, read-out: Ki app) [µM] | IC50 (NDM-1; NDM-1 1 nM, nitrocefin 120 µM, mean ± SD) [µM] | Ki (NDM-1; NDM-1, Cheng–Prusoff equation, read-out: Ki app) [µM] | Plasma concentration ([1]; dose of 10 mg/kg.b.w) [ng/mL] | Time of peak concentration (Cmax) after drug administration [1] [min]
1 | CON=C(C(=O)NC1C(=O)N2C(C(=O)O)=C(COC(C)=O)CSC12)c1csc(NC(=O)CC(C(=O)OC)N2CCN(CC(=O)O)CCN(CC(=O)O)CC2)n1 (stereo in doubt) [BP2] | remained unaffected | significantly decreased | not disrupted | 57.1 ± 2.9 | 30.9 | 70.7 ± 4.5 | 35.3 | 1.93 | 15
2 | C[C@@H](O)[C@H]1C(=O)N2C(C(=O)O)=C(S[C@@H]3CN[C@H](C(=O)N(C)C)C3)[C@H](C)[C@H]12 [Meropenem] |  |  |  |  |  |  |  |  | 15
